Biological target: Prokineticin receptor 1 (Human, UniProt Q8TCW9)
Assay: Aequorin-Based Luminescent Assay
Procedure: An aequorin-based luminescent assay for calcium mobilization was used to measure mobilization of intracellular Ca2+ (Bullock et al., Mol Pharmacol 65, 582-588, 2004). Chinese hamster ovary (CHO) cells stably expressing photoprotein aequorin and recombinant PKR1 or PKR2 were tested by this method. Briefly, the cells were charged in Opti-MEM (Invitrogen) containing 8 μM of coelenterazine cp at 37° C. for 2 hours. Cells were detached by brief trypsinization and maintained in Hank's Balanced Salt Solution (HBSS) plus 10 mM HEPES (pH7.5) and 0.1% BSA at about 5×10^5 cells/ml. Luminescence measurements were made using a Berthold luminometer.All compounds were diluted in HBSS plus 10 mM HEPES (pH7.5) and 0.1% BSA. To test the agonist activity, 100 μl of cells were injected into the tubes with 20 μl of compounds. For antagonist assays, 80 μl cells were incubated in the tubes with 20 μl different concentrations of antagonists at room temperature for 20 minutes, and then 100 μl of recombinant PK2 were injected. The IC50 obtained from the assays were then converted to Ki values using the formula: IC50/(1+[PK2]/EC50PK2).

Sequence of Prokineticin receptor 1 (Q8TCW9 whole entry): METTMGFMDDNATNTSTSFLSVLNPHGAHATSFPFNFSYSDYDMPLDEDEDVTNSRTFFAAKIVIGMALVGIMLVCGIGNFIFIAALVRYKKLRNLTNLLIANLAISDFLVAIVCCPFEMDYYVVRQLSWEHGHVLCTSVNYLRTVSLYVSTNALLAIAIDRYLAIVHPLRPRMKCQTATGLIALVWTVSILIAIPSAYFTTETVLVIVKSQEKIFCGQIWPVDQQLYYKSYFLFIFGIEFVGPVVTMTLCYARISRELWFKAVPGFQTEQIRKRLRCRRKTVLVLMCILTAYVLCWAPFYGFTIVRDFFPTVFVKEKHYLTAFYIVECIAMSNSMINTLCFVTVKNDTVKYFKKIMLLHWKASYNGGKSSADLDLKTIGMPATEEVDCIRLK

Row | SMILES | Ki [nM]
1 | COc1cc(F)cc(CN2CCC(C(=O)N(Cc3cc(Cl)c4c(c3)OCCCO4)CC(C)C)C2)c1 (configuration not stated) [US10780095, Structure TABLE 1.18] | 41.5
2 | COc1cc(F)cc(CN2CCC(C(=O)N(Cc3cc(Cl)c4c(c3)OCCCO4)CC(C)C)C2)c1 (configuration not stated) [US10780095, Structure TABLE 1.16] | 373

From BindingDB's records for patent US10780095 (THE REGENTS OF THE UNIVERSITY OF CALIFORNIA, 2020)
